Measurements: a melting point compilation (Tetko et al.; mined from patent text by program, amines drawn as free bases though some values may be those of a salt)

Point of comparison: `CC1(C)CCC(C)(C)c2c(C=O)cc(-c3ccccc3)cc21`, melting point 113 °C. Against it:
- Cc1ccc(N2C(=O)c3nccnc3C2OC(=O)Oc2ccccc2)nc1 (centres undefined) — higher, 176 °C
- O=C(O)c1nc(-c2ccccc2)n2c1CN=C(c1ccccc1F)c1cc(Cl)ccc1-2 — higher, 267 to 269 °C
- CC(C)(C)NC(=O)N1CCn2c(Br)c(-c3cccc(F)c3)c(C(N)=O)c2C1 — higher, 184 to 189 °C
- Cc1ccc(CCc2cc3c(s2)NC(=S)CN=C3c2ccccc2Cl)cc1 — higher, 190 to 191 °C
- Cn1c(-c2cc(C(F)(F)F)nn2-c2ncccc2Cl)nc2c(Cl)cccc2c1=O — higher, 155 to 157 °C
- Cc1c(-c2ccc(OC(C)C)cc2)n(Cc2ccc(OCCO)cc2)c2ccc(OCc3ccccc3)cc12 — higher, 129 to 131 °C
- CC1(c2ccc(Br)cc2)C(=O)Nc2cc(Cl)cc(Cl)c2C1=O (centres undefined) — higher, 237 to 238 °C
- COc1cccc(CNC(=O)c2nc3scc(COc4ccc(CC(=O)O)cc4)c3c(=O)[nH]2)c1 — higher, 228 to 230 °C
- O=C(NCCN1CCC(O)(c2ccc(Cl)cc2)CC1)c1ccccc1 — higher, 169 °C
- Cc1sc(CCc2ccc(CCCC3OC(=O)NC3=O)cc2)nc1-c1ccccc1 (centres undefined) — lower, 111 to 112 °C
- COc1cc(C(C)C)c2c(c1)S(=O)(=O)N(COC(=O)c1c(C)noc1C)C2=O — higher, 137 to 139 °C
- COc1c(CCCI)cccc1OCc1coc(/C=C/c2ccccc2)n1 — lower, 103 to 104 °C
- CN1C(C(=O)Nc2cc(Cl)ncn2)=C(O)c2ccc3ccccc3c2S1(=O)=O — higher, 263 °C
- C#CCc1c(C)nc2c(OCc3ccccc3S(C)(=O)=O)cccn12 — higher, 179 to 180 °C
- O=C(CBr)CCCCCCN1C(=O)c2ccccc2C1=O — lower, 83 to 86 °C
- CCCCc1ncc(/C=C2\C(=O)NC(=O)N2Cc2ccccc2)n1Cc1ccc(C(=O)O)cc1 — higher, 297 to 298 °C
- Cc1c(CO)oc2ccc([N+](=O)[O-])cc12 — higher, 149 to 150 °C
- CCCN(c1ccccc1)c1nc(C)nc(Cl)c1[N+](=O)[O-] — lower, 99.8 to 100 °C
- COC(=O)c1coc(-c2ncn3c2CN(C)C(=O)c2sccc2-3)n1 — higher, 254 to 255 °C
- Cc1c(-c2ccc(OCc3ccccc3)cc2)n(Cc2ccc(OCCCCl)cc2)c2ccc(OCc3ccccc3)cc12 — higher, 130 to 132 °C
- CC(=O)N(C)c1c(I)c(N)c(I)c(C(=O)N(C)C)c1I — higher, 235 to 240 °C
- Cc1cc2nc(O)c(-c3c(F)cc(F)cc3F)c(O)n2n1 — higher, 304 °C
- CCOC(=O)C(=CNc1cc(C)nn1-c1ccccn1)C(=O)OCC — higher, 128 to 131 °C
- CCCOC(=O)C1=C(C)NC(C)=C(C(=O)OC)C1c1ccccc1[N+](=O)[O-] (centres undefined) — higher, 127 to 128 °C
- COC(=O)c1c(C(=O)OC)c(-c2ccc(OC)c(OC)c2)c2c(O)c(OC)c(OC)cc2c1O — higher, 179 °C
- COc1ccc2sc(-c3ccc(OCCN4CCCC4)cc3)c(C(=O)c3ccc(OC4CCCCC4N4CCCCC4)cc3)c2c1 (centres undefined) — lower, 63 to 66 °C
- CC(c1oc2ccc(Br)cc2c(=O)c1-c1ccccc1)n1ncc2c(N)ncnc21 (centres undefined) — higher, 239 to 240 °C
- Cn1cc(Nc2nc(N3CCOCC3)nc(-n3c(C(F)F)nc4ccccc43)n2)cn1 — higher, 225 to 226 °C
- O=C(CBr)c1ccc(OCc2ccccc2)c([N+](=O)[O-])c1 — higher, 136 °C
- NC(=O)c1sc2nc(N3CCC(NCC(O)c4ccccc4F)CC3)cc(C(F)(F)F)c2c1N (centres undefined) — higher, 192 to 194 °C
- CC#CCOc1ccc(SC(C(=O)NO)c2ccc3ccccc3c2)cc1 (centres undefined) — higher, 148 °C
- COc1ccc(C=CC=C(C#N)C#N)cc1 — higher, 160 °C
- O=C(c1cc(NS(=O)(=O)c2ccccc2)ccn1)N(O)Cc1ccccc1 — higher, 175 to 180 °C
- COC(=O)[C@@H]1[C@H](c2ccccc2)N1S(=O)(=O)c1ccc(C)cc1 (some centres undefined) — lower, 85 to 87 °C
- CCCC(=O)C1=C(O)CC2(CCC(C)CC2)OC1=O (centres undefined) — lower, 60 to 63 °C
- Nc1cc(C(=O)c2ccc(Oc3ccccc3)c(N)c2)ccc1Oc1ccccc1 — higher, 153 to 154 °C
- Cc1csc2ccc3c(c4c(n3CCCN(C)C)CCNC4)c12 — lower, 92 °C
- COP(=O)(CC(O)c1c(C)cc(C)cc1-c1ccc(F)c(C)c1)OC (centres undefined) — lower, 98 to 100 °C
- CC(C)n1c(=O)n(C)c(=O)c2c(S(=O)(=O)CCCO)n(C3Cc4ccccc4C3)cc21 — higher, 171 to 172 °C
- O=P1(c2ccccc2)OCC2(CO1)COP(=O)(c1ccccc1)OC2 (centres undefined) — higher, 264 to 265 °C
- Cc1cccc2cc3c(=O)n(CCc4c[nH]c5ccccc45)cc(C(=O)NCCN(C)C)c3nc12 — lower, 105 to 107 °C
- O=C(Cc1ccc2c(c1)Cc1c-2[nH]c(=O)c2nccn12)NCc1ccccc1 — higher, > 260 °C
- C=C1SC(=S)N(c2ccc3cc(-c4ccc(OC)c(C(C)(C)C)c4)ccc3c2)C1=O — higher, 281 to 284 °C
- CCOC(=O)c1c(O)c2cc(Cl)cnc2n(Cc2ccccc2)c1=O — higher, 141 to 142 °C
- COc1ccc(C2=NN(C3CCN(C(=O)N4CCOCC4)CC3)C(=O)[C@@H]3CC=CC[C@H]23)cc1OC — higher, 184 to 185 °C
- O=C(C[C@H]1CC[C@@H](C(=O)O)N1Cc1ccccc1)N[C@@H](Cc1ccc(OCc2c(Cl)cccc2Cl)cc1)C(=O)O — higher, 198 to 202 °C
- COc1ccc2c(c1)CCC1=C2CCC2(C(C)C)C(=O)CCC12 (centres undefined) — lower, 85 to 100 °C
- O=C(OCC1OC(n2cc(F)c(=O)[nH]c2=O)C(O)C1O)C1CCCN1C(=O)OCc1ccccc1 (centres undefined) — higher, 137 to 144 °C
